Measurements from ChEMBL document CHEMBL1155961, “Novel 4-aryl-pyrido[1,2-c]pyrimidines with dual SSRI and 5-HT1A activity: part 2” (Eur J Med Chem, 2009).
Values belong to the compound of their own block, whether it stands above or below them. Active and inactive are the calls of the source. No cut-off for these calls is given here.

Assays:
[1] = biological target: Sodium-dependent serotonin transporter (Rattus norvegicus, UniProt P31652); assay: Displacement of [3H]citalopram from SERT in rat cerebral cortex by liquid scintillation counting; type: tissue-based
[2] = test system: Mus musculus; assay: Effect on hypothermia in Swiss albino mouse assessed as change in rectal body temperature at 10 mg/kg, ip after 120 mins by inducible hypothermia test; type: functional, organism-based; design: dose 10 mg/kg
[3] = test system: Mus musculus; assay: Effect on hypothermia in Swiss albino mouse assessed as change in rectal body temperature at 10 mg/kg, ip after 90 mins by inducible hypothermia test; type: functional, organism-based; design: dose 10 mg/kg
[4] = test system: Mus musculus; assay: Effect on hypothermia in Swiss albino mouse assessed as change in rectal body temperature at 10 mg/kg, ip after 60 mins by inducible hypothermia test; type: functional, organism-based; design: dose 10 mg/kg
[5] = test system: Mus musculus; assay: Effect on hypothermia in Swiss albino mouse assessed as change in rectal body temperature at 10 mg/kg, ip after 30 mins by inducible hypothermia test; type: functional, organism-based; design: dose 10 mg/kg
[6] = test system: Mus musculus; assay: Effect on hypothermia in Swiss albino mouse assessed as change in rectal body temperature at 5 mg/kg, ip after 120 mins by inducible hypothermia test; type: functional, organism-based; design: dose 5 mg/kg
[7] = test system: Mus musculus; assay: Effect on hypothermia in Swiss albino mouse assessed as change in rectal body temperature at 5 mg/kg, ip after 90 mins by inducible hypothermia test; type: functional, organism-based; design: dose 5 mg/kg
[8] = test system: Mus musculus; assay: Effect on hypothermia in Swiss albino mouse assessed as change in rectal body temperature at 5 mg/kg, ip after 60 mins by inducible hypothermia test; type: functional, organism-based; design: dose 5 mg/kg
[9] = test system: Mus musculus; assay: Effect on hypothermia in Swiss albino mouse assessed as change in rectal body temperature at 5 mg/kg, ip after 30 mins by inducible hypothermia test; type: functional, organism-based; design: dose 5 mg/kg
[10] = biological target: T1, 5-hydroxytryptamine receptor 1A (Rattus norvegicus, UniProt P19327); assay: Displacement of [3H]8-OH-DPAT from 5-HT1A receptor in rat hippocampus; type: tissue-based
T1 sequence (P19327 whole entry): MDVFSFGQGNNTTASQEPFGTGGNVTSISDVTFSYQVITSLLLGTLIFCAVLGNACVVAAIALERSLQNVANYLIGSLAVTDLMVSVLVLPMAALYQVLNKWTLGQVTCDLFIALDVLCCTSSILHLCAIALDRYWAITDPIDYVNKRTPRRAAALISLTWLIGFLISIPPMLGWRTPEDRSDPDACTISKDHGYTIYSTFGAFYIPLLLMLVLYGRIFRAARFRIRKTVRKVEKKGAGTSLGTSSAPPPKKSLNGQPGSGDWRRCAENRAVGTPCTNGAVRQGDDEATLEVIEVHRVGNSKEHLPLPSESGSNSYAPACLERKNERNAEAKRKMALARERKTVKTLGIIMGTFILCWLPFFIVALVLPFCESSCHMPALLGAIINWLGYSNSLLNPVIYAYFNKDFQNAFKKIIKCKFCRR

[11] = test system: Mus musculus; assay: Effect on spontaneous locomotor activity in Swiss albino mouse assessed as number of light-beam crossings in actiometers pretreated for 30 mins at 10 mg/kg, ip measured during 6 mins post drug dose; type: functional; conditions: route intraperitoneal
[12] = test system: Mus musculus; assay: Effect on spontaneous locomotor activity in Swiss albino mouse assessed as number of light-beam crossings in actiometers pretreated for 30 mins at 10 mg/kg, ip measured during 30 mins post drug dose; type: functional; conditions: route intraperitoneal
[13] = test system: Mus musculus; assay: Antidepressant activity in Swiss albino mouse assessed as reduction of immobility time at 10 mg/kg, ip administered 30 mins before test measured 6 mins test session after 2 mins habituation period by forced swimming test; type: functional; design: scale not given: the % may be the effect or the level left; conditions: route intraperitoneal
[14] = test system: Mus musculus; assay: Antidepressant activity in Swiss albino mouse assessed as reduction of immobility time at 5 mg/kg, ip administered 30 mins before test measured 6 mins test session after 2 mins habituation period by forced swimming test; type: functional, organism-based; design: dose 5 mg/kg
[15] = test system: Mus musculus; assay: Effect on hypothermia in Swiss albino mouse assessed as change in rectal body temperature at 10 mg/kg, ip dosed 15 mins after 0.1 mg/kg, sc WAY 100635 challenge measured after 60 mins by inducible hypothermia test; type: functional, organism-based
[16] = test system: Mus musculus; assay: Effect on hypothermia in Swiss albino mouse assessed as change in rectal body temperature at 10 mg/kg, ip dosed 15 mins after 0.1 mg/kg, sc WAY 100635 challenge measured after 30 mins by inducible hypothermia test; type: functional, organism-based
[17] = test system: Mus musculus; assay: Antidepressant activity in Swiss albino mouse assessed as reduction of immobility time at 2 mg/kg, sc administered 30 mins before test measured 6 mins test session after 2 mins habituation period by forced swimming test; type: functional; design: scale not given: the % may be the effect or the level left; conditions: route subcutaneous
[18] = test system: Mus musculus; assay: Antidepressant activity in Swiss albino mouse assessed as reduction of immobility time at 1 mg/kg, sc administered 30 mins before test measured 6 mins test session after 2 mins habituation period by forced swimming test; type: functional; design: scale not given: the % may be the effect or the level left; conditions: route subcutaneous
[19] = test system: Mus musculus; assay: Effect on hypothermia in Swiss albino mouse assessed as change in rectal body temperature at 20 mg/kg, ip after 120 mins by inducible hypothermia test; type: functional, organism-based; design: dose 20 mg/kg
[20] = test system: Mus musculus; assay: Effect on hypothermia in Swiss albino mouse assessed as change in rectal body temperature at 20 mg/kg, ip after 90 mins by inducible hypothermia test; type: functional, organism-based; design: dose 20 mg/kg
[21] = test system: Mus musculus; assay: Effect on hypothermia in Swiss albino mouse assessed as change in rectal body temperature at 20 mg/kg, ip after 30 mins by inducible hypothermia test; type: functional, organism-based; design: dose 20 mg/kg
[22] = test system: Mus musculus; assay: Effect on hypothermia in Swiss albino mouse assessed as change in rectal body temperature at 20 mg/kg, ip after 60 mins by inducible hypothermia test; type: functional, organism-based; design: dose 20 mg/kg
[23] = organism: Mus musculus; conditions: Swiss albino, 20 mg/kg
[24] = organism: Mus musculus; conditions: Swiss albino, 20 mg/kg; remark: listed apart in the source
[25] = organism: Mus musculus; conditions: Swiss albino, 20 mg/kg; remark: listed apart in the source
[26] = organism: Mus musculus; conditions: Swiss albino, 20 mg/kg; remark: listed apart in the source

Chain of Sodium-dependent serotonin transporter (P31652 whole entry): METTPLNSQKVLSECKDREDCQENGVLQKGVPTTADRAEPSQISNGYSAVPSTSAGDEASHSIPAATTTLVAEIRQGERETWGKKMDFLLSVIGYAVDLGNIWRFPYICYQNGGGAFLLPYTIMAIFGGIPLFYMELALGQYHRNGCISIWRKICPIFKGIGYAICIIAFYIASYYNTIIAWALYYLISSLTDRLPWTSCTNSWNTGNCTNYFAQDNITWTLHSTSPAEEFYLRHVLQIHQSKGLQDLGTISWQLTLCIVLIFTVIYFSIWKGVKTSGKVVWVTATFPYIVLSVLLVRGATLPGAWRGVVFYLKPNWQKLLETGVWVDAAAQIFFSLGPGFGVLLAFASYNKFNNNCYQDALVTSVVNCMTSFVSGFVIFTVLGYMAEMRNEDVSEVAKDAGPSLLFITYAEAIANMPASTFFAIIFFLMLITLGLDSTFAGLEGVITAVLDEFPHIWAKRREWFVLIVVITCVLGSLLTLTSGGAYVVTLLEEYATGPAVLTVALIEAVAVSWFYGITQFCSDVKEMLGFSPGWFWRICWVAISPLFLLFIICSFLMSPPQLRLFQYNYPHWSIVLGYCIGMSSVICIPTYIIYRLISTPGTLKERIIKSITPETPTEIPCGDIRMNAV

Ki [1]: 203 nM
Compound: COc1ccc(-c2c3n(c(=O)n(CCCCN4CCC(c5c(C)[nH]c6ccccc56)CC4)c2=O)CCCC3)cc1

Compound: Cc1ccc(-c2c3n(c(=O)n(CCCCN4CCC(c5c[nH]c6ccccc56)CC4)c2=O)CCCC3)cc1
deltaT [2]: -0.2 °C
deltaT [3]: -0.3 °C
deltaT [4]: -0.5 °C
deltaT [5]: -1 °C
deltaT [6]: -0.2 °C
deltaT [7]: -0.3 °C
deltaT [8]: -0.6 °C
deltaT [9]: -0.6 °C
Ki [10]: 48.3 nM
Ki [1]: 76.7 nM
Activity [11]: 114
Activity [12]: 221
Activity [13]: 34%
Activity [14]: inactive
deltaT [15]: -0.6 °C
deltaT [16]: -0.6 °C

Compound: Cc1[nH]c2ccccc2c1C1CCN(CCCCn2c(=O)c(-c3ccc(F)cc3)c3n(c2=O)CCCC3)CC1
Ki [10]: 3200 nM
Ki [1]: 116 nM

Compound: CCCN(CCC)C1CCc2cccc(O)c2C1 (centres undefined) [8-OH-DPAT]
Activity [17]: 57%
Activity [18]: 45%

Compound: Cc1ccccc1-c1c2n(c(=O)n(CCCCN3CCC(c4c[nH]c5ccccc45)CC3)c1=O)CCCC2
Ki [10]: 53.8 nM
Ki [1]: 124 nM

Compound: COc1ccc(-c2c3n(c(=O)n(CCCCN4CCC(c5c[nH]c6ccccc56)CC4)c2=O)CCCC3)cc1
deltaT [19]: -0.3 °C
deltaT [20]: -0.4 °C
deltaT [21]: -0.6 °C
deltaT [22]: -0.7 °C
deltaT [2]: -0.3 °C
deltaT [3]: -0.4 °C
deltaT [4]: -0.5 °C
deltaT [5]: -0.7 °C
deltaT [6]: -0.1 °C
deltaT [7]: -0.2 °C
deltaT [8]: -0.2 °C
deltaT [9]: -0.5 °C
Ki [10]: 20.5 nM
Ki [1]: 71.6 nM
deltaT [23]: -0.2 °C
deltaT [24]: -0.3 °C
deltaT [25]: -0.5 °C
deltaT [26]: 0.6 °C

Ki [10]: 1400 nM
Ki [1]: 274 nM
Compound: Cc1[nH]c2ccccc2c1C1CCN(CCCCn2c(=O)c(-c3ccccc3)c3n(c2=O)CCCC3)CC1

Compound: Cc1[nH]c2ccccc2c1C1CCN(CCCCn2c(=O)c(-c3ccccc3Cl)c3n(c2=O)CCCC3)CC1
Ki [10]: 2100 nM
Ki [1]: 480 nM

Compound: O=c1c(-c2ccccc2Cl)c2n(c(=O)n1CCCCN1CCC(c3c[nH]c4ccccc34)CC1)CCCC2
Ki [10]: 36.2 nM
Ki [1]: 101 nM

Ki [10]: 51.7 nM
Ki [1]: 124 nM
Compound: COc1ccc2[nH]cc(C3CCN(CCCCn4c(=O)c(-c5ccccc5C)c5n(c4=O)CCCC5)CC3)c2c1
